Reference: ChEMBL document CHEMBL3576781, “Substituted Bis-THF Protease Inhibitors with Improved Potency against Highly Resistant Mature HIV-1 Protease PR20” (J Med Chem, 2015)
The source made the active and inactive calls. The calls are words filed in the database; no cut-off is given here.

What was measured:
[1] = Binding affinity to HIV1 protease PR20 mutant expressed in Escherichia coli BL21 (DE3) assessed as ligand dissociation constant by ITC method; set-up: species or system Human immunodeficiency virus 1
[2] = tested on: Human immunodeficiency virus 1; assay: Antiviral activity against HIV1 by cell based MTT assay; type: functional, organism-based
Protease = Protease (Human immunodeficiency virus 1, UniProt Q9YQ12); assay: Inhibition of wild type HIV1 protease
Protease, sequence (Q9YQ12 whole entry): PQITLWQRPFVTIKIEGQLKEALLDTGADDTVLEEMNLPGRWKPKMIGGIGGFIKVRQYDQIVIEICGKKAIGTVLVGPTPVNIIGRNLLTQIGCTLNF

[3] = Inhibition of HIV1 protease PR20 mutant expressed in Escherichia coli BL21 (DE3) incubated for 5 mins followed by Abz-Thr-Ile-Nle-p-nitro-Phe-GlnArg-NH2 substrate addition and measured over 5 mins by microplate reader based assay; set-up: species or system Human immunodeficiency virus 1
[4] = tested on: Human immunodeficiency virus 1; assay: Inhibition of N-terminal autoprocessing of transframe region-comprising HIV1 protease PR20 mutant precursor up to 100 uM by SDS-PAGE method
[5] = tested on: Human immunodeficiency virus 1; assay: Antiviral activity against HIV1 LAI infected in human MT2 cells by MTT assay; type: functional, organism-based; conditions: Human immunodeficiency virus 1, LAI

SMILES	Kd [1]	IC50 [2]	Ki (Protease)	Ki [3]	inhibition [4]	EC50 [5]
CC(C)CN(C[C@@H](O)[C@H](Cc1ccccc1)NC(=O)O[C@H]1CO[C@H]2OCC[C@H]21)S(=O)(=O)c1ccc(N)cc1	41 nM	–	–	–	–	–
COc1ccc(S(=O)(=O)N(CC(C)C)C[C@@H](O)[C@H](Cc2ccccc2)NC(=O)O[C@H]2CO[C@H]3OC[C@H](OC)[C@H]32)cc1	–	2.4 nM	0.0029 nM	4.3 nM	inactive	–
CC(C)CN(C[C@@H](O)[C@H](Cc1ccccc1)NC(=O)O[C@H]1CO[C@H]2OCC(F)(F)[C@H]21)S(=O)(=O)c1ccc(N)cc1	–	–	0.0058 nM	1.7 nM	inactive	3 nM
